Laboratory results from the NIST ThermoML archive (doi:10.1016/j.jct.2005.11.003).
± gives the expanded uncertainty stated by the source.

Key:
[1] = xn = mol fraction of the nth substance listed; settings: 298.15 K, 101 kPa, Liquid
[2] = 298.15 K; 101.33 kPa; Liquid
[3] = refractive index (Na D-line) (dimensionless); settings: 298.15 K; 101.33 kPa; Liquid

CCCCOC(=O)CCC [butyl butanoate] + ClCCCCCl
[1]
Settings | mass density [kg/m3]
x1 = 0.0415 | 1117.54 ± 0.64
x1 = 0.0836 | 1101.67 ± 0.63
x1 = 0.1727 | 1070.09 ± 0.59
x1 = 0.2202 | 1054.28 ± 0.57
x1 = 0.322 | 1022.51 ± 0.54
x1 = 0.3752 | 1006.99 ± 0.53
x1 = 0.4319 | 991.17 ± 0.52
x1 = 0.4904 | 975.58 ± 0.52
x1 = 0.554 | 959.43 ± 0.52
x1 = 0.6186 | 943.82 ± 0.52
x1 = 0.7579 | 912.57 ± 0.53
x1 = 0.8338 | 896.78 ± 0.54
x1 = 0.9131 | 881.09 ± 0.54

CCCCOC(=O)CCC [butyl butanoate] + ClCCCCl
[1]
Settings | mass density [kg/m3]
x1 = 0.0357 | 1159.7 ± 0.7
x1 = 0.0715 | 1141.38 ± 0.67
x1 = 0.1103 | 1122.7 ± 0.65
x1 = 0.1503 | 1104.39 ± 0.63
x1 = 0.1936 | 1085.72 ± 0.61
x1 = 0.2376 | 1067.78 ± 0.59
x1 = 0.2869 | 1048.84 ± 0.57
x1 = 0.3371 | 1030.74 ± 0.55
x1 = 0.3921 | 1012.12 ± 0.53
x1 = 0.4496 | 993.89 ± 0.52
x1 = 0.5117 | 975.49 ± 0.52
x1 = 0.5785 | 957.03 ± 0.52
x1 = 0.6494 | 938.78 ± 0.52
x1 = 0.7262 | 920.43 ± 0.53
x1 = 0.8114 | 901.61 ± 0.53
x1 = 0.8978 | 884.02 ± 0.54

ClCCCCCl [1,4-dichlorobutane] + CCCCOC(=O)CC
[1]
Settings | mass density [kg/m3]
x2 = 0.0475 | 1117.36 ± 0.64
x2 = 0.0925 | 1102.34 ± 0.63
x2 = 0.1874 | 1072.01 ± 0.59
x2 = 0.239 | 1056.26 ± 0.58
x2 = 0.29 | 1041.21 ± 0.56
x2 = 0.3443 | 1025.65 ± 0.54
x2 = 0.4006 | 1010.07 ± 0.53
x2 = 0.5171 | 979.4 ± 0.52
x2 = 0.5798 | 963.71 ± 0.52
x2 = 0.6418 | 948.74 ± 0.52
x2 = 0.7075 | 933.4 ± 0.52
x2 = 0.8474 | 902.46 ± 0.53
x2 = 0.8829 | 894.96 ± 0.54
x2 = 0.9206 | 887.11 ± 0.54
x2 = 0.9575 | 879.61 ± 0.54

CCCCOC(C)=O [butyl ethanoate]
Settings | mass density [kg/m3] | refractive index
[2] | 876.4 ± 1.1 | –
[3] | – | 1.3918 ± 0.001

ClCCCCl [1,3-dichloropropane] + CCCCOC(=O)CC
[1]
Settings | mass density [kg/m3]
x2 = 0.0407 | 1159.66 ± 0.7
x2 = 0.1229 | 1123.34 ± 0.65
x2 = 0.2119 | 1087.43 ± 0.61
x2 = 0.2612 | 1068.85 ± 0.59
x2 = 0.3653 | 1032.69 ± 0.55
x2 = 0.4229 | 1014.17 ± 0.53
x2 = 0.4801 | 996.73 ± 0.52
x2 = 0.5422 | 978.78 ± 0.52
x2 = 0.6802 | 942.1 ± 0.52
x2 = 0.7534 | 924.3 ± 0.53
x2 = 0.9139 | 888.6 ± 0.54

ClCCCl [1,2-dichloroethane] + CCCCOC(C)=O
[1]
Settings | mass density [kg/m3]
x2 = 0.0359 | 1223.55 ± 0.58
x2 = 0.0733 | 1201.71 ± 0.56
x2 = 0.1139 | 1178.94 ± 0.55
x2 = 0.1559 | 1156.86 ± 0.53
x2 = 0.1988 | 1135.53 ± 0.53
x2 = 0.2456 | 1113.51 ± 0.52
x2 = 0.2953 | 1091.52 ± 0.52
x2 = 0.3469 | 1070.08 ± 0.52
x2 = 0.4021 | 1048.45 ± 0.52
x2 = 0.4599 | 1027.18 ± 0.53
x2 = 0.5233 | 1005.31 ± 0.54
x2 = 0.5883 | 984.3 ± 0.56
x2 = 0.6585 | 963 ± 0.59
x2 = 0.7344 | 941.52 ± 0.63
x2 = 0.8173 | 919.59 ± 0.66
x2 = 0.9013 | 898.96 ± 0.7

CCCCOC=O [butyl methanoate]
Settings | mass density [kg/m3] | refractive index
[2] | 888.17 ± 1.6 | –
[3] | – | 1.387 ± 0.0012

ClCCCCCCCl [1,6-dichlorohexane] + CCCCOC(C)=O
[1]
Settings | mass density [kg/m3]
x2 = 0.0673 | 1052.28 ± 1.1
x2 = 0.1308 | 1041.35 ± 1
x2 = 0.1929 | 1030.53 ± 1
x2 = 0.2552 | 1019.5 ± 0.99
x2 = 0.3164 | 1008.57 ± 0.96
x2 = 0.3768 | 997.63 ± 0.93
x2 = 0.4368 | 986.64 ± 0.91
x2 = 0.4966 | 975.54 ± 0.89
x2 = 0.554 | 964.77 ± 0.87
x2 = 0.6113 | 953.89 ± 0.85
x2 = 0.6692 | 942.75 ± 0.83
x2 = 0.7252 | 931.87 ± 0.81
x2 = 0.7823 | 920.59 ± 0.79
x2 = 0.8912 | 898.78 ± 0.76
x2 = 0.9466 | 887.47 ± 0.75
